Converted amounts (≈) assume the structure as drawn. Where two headings read alike, the source gives them in different places.
Legend:
[1] = tested on: IL-17A; test: Cytokine assay: IL-17A production by human PBMC stimulated with PHA; format: cell-based; conditions: IC50 class, read-out: IL-17A Inhib.
Summary of the method: (§1)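 Healthy-donor PBMC, isolated on Histopaque-1077, were seeded at 1×10^5 cells/well in RPMI1640 with 10% dialyzed heat-inactivated FCS, activated with 2 μg/ml PHA and incubated with compound for 48 hours. Supernatant cytokine was measured by Luminex BioPlex or ELISA. IC50 came from semilogarithmic titration; screening used 10, 1, 0.1 and 0.01 μM.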

[2] = tested on: INF-γ; test: Cytokine assay: INF-γ production by human PBMC stimulated with PHA; format: cell-based; conditions: Homo sapiens, PBMC, IC50 class, read-out: IFN-gamma Inhib.
Summary of the method: as §1

[3] = Microsomal stability: incubation with human liver microsomes, residual parent compound by HPLC-MS/MS; format: in vitro ADME; conditions: up to 60 min, read-out: t1/2 hLM
Summary of the method: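 Compound at 1 μM final with 0.5 mg/ml pooled human liver microsomes and NADPH regenerating system, 0.1 M potassium phosphate pH 7.4, 0.4% DMSO, 37° C, sampled up to 60 min. Residual parent measured by HPLC-MS/MS; half-life and clearance from slope of remaining % of T0.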

[4] = Aqueous solubility in 50 mM phosphate buffer (HPLC/DAD); format: physicochemical; conditions: 50 mM phosphate buffer, 23 °C, pH 7.4, aqueous buffer, kinetic from dmso stock, aqueous solubility class; read-out: aq. solub.
Description: To achieve this, the samples (final volume 500 μl, 200 μM compound concentration) were incubated for 24 hours at 23° C. under continuous shaking at 1400 rpm (Thermomixer, Eppendorf) in aqueous phosphate buffers (pH 4.0, 6.0, 7.4 and 9.0) with a final DMSO concentration of 1%. To separate the undissolved compound from the solution, the samples were centrifuged (30 min 18000 g at 23° C.). Supernatants were measured via HPLC equipped with a UV detector and concentrations were calculated according to signals of a standard curve. The standard curve was prepared by diluting a stock solution of each compound (c=0.1 mg/ml; received by adding 10 μl of 20 mM compound in DMSO to 914 μl MeCN) in a certain amount of MeCN to cover a range of 0.1 to 200 μg/ml.

[5] = tested on: IL-17F; test: Cytokine assay: IL-17F production by human PBMC stimulated with PHA; format: cell-based; conditions: Homo sapiens, PBMC, IC50 class, read-out: IL-17F Inhib.
Summary of the method: as §1

[6] = human liver microsomes 0.5 mg/ml, compound 1 μM, pH 7.4, 37° C.
[7] = pH 7.4, human liver microsomes, 1 μM compound, 0.5 mg/ml HLM, 37° C.

| IC50 ([1]; Homo sapiens, PBMC) [nM] | IC50 [2] [nM] | half-life at 1 μM [3, 6] [h] | solubility at 24 h [4] [µM] | IC50 [5] [nM] | half-life at 1 μM [3, 7] [h] | IC50 [1] [nM] | Structure (SMILES) |
| --- | --- | --- | --- | --- | --- | --- | --- |
| < 50 | < 50 | > 1.67 | 3 to 9.99 (≈ 1.46 to 4.87 µg/mL) | < 50 |  |  | CC(C)(O)CCn1ncc(-c2onc(-c3c(F)cccc3Cl)c2COC2CC2)c1C(F)(F)F [Example 77, 4-{4-[3-(2-chloro-6-fluorophenyl)-4-(cyclopropoxymethyl)-1,2-oxazol-5-yl]-5-(trifluoromethyl)-1H-pyrazol-1-yl}-2-methylbutan-2-ol] |
| 50 to 500 | < 50 | 0.667 to 1.67 | > 10 | < 50 |  |  | CC(C)(O)CCn1ncc(-c2onc(-c3ccccc3Cl)c2COC2CC2)c1C(F)(F)F [Example 78, 4-{4-[3-(2-chlorophenyl)-4-(cyclopropoxymethyl)-1,2-oxazol-5-yl]-5-(trifluoromethyl)-1H-pyrazol-1-yl}-2-methylbutan-2-ol] |
| < 50 | < 50 | > 1.67 | > 10 | < 50 |  |  | Cc1c(-c2onc(-c3c(F)cccc3Cl)c2COC2CC2)cnn1CCC(C)(C)O [Example 82, 4-{4-[3-(2-chloro-6-fluorophenyl)-4-(cyclopropoxymethyl)-1,2-oxazol-5-yl]-5-methyl-1H-pyrazol-1-yl}-2-methylbutan-2-ol] |
| < 50 | < 50 | 0.667 to 1.67 | 1 to 2.99 (≈ 0.432 to 1.29 µg/mL) | < 50 |  |  | Cc1c(-c2onc(-c3c(F)cccc3Cl)c2COC2CC2)cnn1[C@H]1C[C@@](C)(O)C1 [Example 83, 3-{4-[3-(2-chloro-6-fluorophenyl)-4-(cyclopropoxymethyl)-1,2-oxazol-5-yl]-5-methyl-1H-pyrazol-1-yl}-1-methylcyclobutan-1-ol] |
| 50 to 500 | < 50 | > 1.67 | > 10 | < 50 |  |  | C[C@]1(O)C[C@@H](n2ncc(-c3onc(-c4ccccc4Cl)c3COC3CC3)c2C(F)(F)F)C1 [Example 87, 3-{4-[3-(2-chlorophenyl)-4-(cyclopropoxymethyl)-1,2-oxazol-5-yl]-5-(trifluoromethyl)-1H-pyrazol-1-yl}-1-methylcyclobutan-1-ol] |
| < 50 | < 50 | 0.0333 to 0.167 | > 10 | < 50 |  |  | CC(C)OCc1c(-c2c(F)cccc2Cl)noc1-c1cnn(C[C@@H](C)O)c1C(F)(F)F [Example 89, (2R)-1-{4-[3-(2-chloro-6-fluorophenyl)-4-[(propan-2-yloxy)methyl]-1,2-oxazol-5-yl]-5-(trifluoromethyl)-1H-pyrazol-1-yl}propan-2-ol] |
| 50 to 500 | < 50 |  | > 10 | < 50 | > 1.67 |  | Cc1c(-c2onc(-c3ccccc3Cl)c2-c2ncccn2)cnn1[C@H]1C[C@@](C)(O)C1 [Example 99, 3-(4-(3-(2-chlorophenyl)-4-(pyrimidin-2-yl)isoxazol-5-yl)-5-methyl-1H-pyrazol-1-yl)-1-methylcyclobutan-1-ol] |
| 500 to 5000 | ≥ 5000 |  | 1 to 2.99 (≈ 0.476 to 1.42 µg/mL) | ≥ 5000 | > 1.67 |  | C[C@]1(O)C[C@@H](n2ncc(-c3onc(-c4ccccc4Cl)c3-c3cnccn3)c2C(F)(F)F)C1 [Example 101, 3-{4-[3-(2-chlorophenyl)-4-(pyrazin-2-yl)-1,2-oxazol-5-yl]-5-(trifluoromethyl)-1H-pyrazol-1-yl}-1-methylcyclobutan-1-ol] |
| < 50 | < 50 |  | > 10 | < 50 | > 1.67 |  | C[C@]1(O)C[C@@H](n2ncc(-c3onc(-c4ccccc4Cl)c3-c3ncccn3)c2C(F)(F)F)C1 [Example 102, 3-{4-[3-(2-chlorophenyl)-4-(pyrimidin-2-yl)-1,2-oxazol-5-yl]-5-(trifluoromethyl)-1H-pyrazol-1-yl}-1-methylcyclobutan-1-ol] |
|  | < 50 |  | 1 to 2.99 (≈ 0.494 to 1.48 µg/mL) | < 50 | > 1.67 | < 50 | C[C@]1(O)C[C@@H](n2ncc(-c3onc(-c4c(F)cccc4Cl)c3-c3ccncn3)c2C(F)(F)F)C1 [Example 104, 3-{4-[3-(2-chloro-6-fluorophenyl)-4-(pyrimidin-4-yl)-1,2-oxazol-5-yl]-5-(trifluoromethyl)-1H-pyrazol-1-yl}-1-methylcyclobutan-1-ol] |
| < 50 | < 50 |  | > 10 | < 50 | > 1.67 |  | C[C@]1(O)C[C@@H](n2ncc(-c3onc(-c4ccccc4Cl)c3-c3ccncn3)c2C(F)(F)F)C1 [Example 106, 3-{4-[3-(2-chlorophenyl)-4-(pyrimidin-4-yl)-1,2-oxazol-5-yl]-5-(trifluoromethyl)-1H-pyrazol-1-yl}-1-methylcyclobutan-1-ol] |
| 50 to 500 | 50 to 500 |  | > 10 | 50 to 500 | > 1.67 |  | Cc1c(-c2onc(-c3c(F)cccc3Cl)c2-c2cnccn2)cnn1[C@H]1C[C@@](C)(O)C1 [Example 110, 3-{4-[3-(2-chloro-6-fluorophenyl)-4-(pyrazin-2-yl)-1,2-oxazol-5-yl]-5-methyl-1H-pyrazol-1-yl}-1-methylcyclobutan-1-ol] |
| < 50 | < 50 |  | > 10 | < 50 | > 1.67 |  | Cc1c(-c2onc(-c3c(F)cccc3Cl)c2-c2ncccn2)cnn1[C@H]1C[C@@](C)(O)C1 [Example 111, 3-{4-[3-(2-chloro-6-fluorophenyl)-4-(pyrimidin-2-yl)-1,2-oxazol-5-yl]-5-methyl-1H-pyrazol-1-yl}-1-methylcyclobutan-1-ol] |
| < 50 | < 50 |  | > 10 | < 50 | > 1.67 |  | COc1cccc(-c2noc(-c3cnn([C@H]4C[C@@](C)(O)C4)c3C)c2-c2ncccn2)c1Cl [Example 112, 3-{4-[3-(2-chloro-3-methoxyphenyl)-4-(pyrimidin-2-yl)-1,2-oxazol-5-yl]-5-methyl-1H-pyrazol-1-yl}-1-methylcyclobutan-1-ol] |
| < 50 | < 50 |  | > 10 | < 50 | > 1.67 |  | CC(C)(O)CCn1ncc(-c2onc(-c3c(F)cccc3Cl)c2-c2ncccn2)c1C(F)(F)F [Example 123, 4-{4-[3-(2-chloro-6-fluorophenyl)-4-(pyrimidin-2-yl)-1,2-oxazol-5-yl]-5-(trifluoromethyl)-1H-pyrazol-1-yl}-2-methylbutan-2-ol] |
| 50 to 500 | 50 to 500 |  | > 10 | 50 to 500 | > 1.67 |  | Cc1c(-c2onc(-c3ccccc3Cl)c2-c2ncccn2)cnn1CCC(C)(C)O [Example 126, 4-[4-[3-(2-chlorophenyl)-4-(pyrimidin-2-yl)-1,2-oxazol-5-yl]-5-methyl-1H-pyrazol-1-yl]-2-methylbutan-2-ol] |

| Structure (SMILES) | IC50 ([1]; Homo sapiens, PBMC) [nM] | IC50 [2] [nM] | half-life at 1 μM [3, 6] [h] | solubility at 24 h [4] [µM] | IC50 [5] [nM] | half-life at 1 μM [3, 7] [h] | IC50 [1] [nM] |
| --- | --- | --- | --- | --- | --- | --- | --- |
| C[C@@H](O)Cn1ncc(-c2onc(-c3c(F)cccc3Cl)c2COC2CCC2)c1C(F)(F)F [Example 90, (2R)-1-(4-(3-(2-chloro-6-fluorophenyl)-4-(cyclobutoxymethyl)isoxazol-5-yl)-5-(trifluoromethyl)-1H-pyrazol-1-yl)propan-2-ol] | < 50 | < 50 | 0.0333 to 0.167 | > 10 | < 50 |  |  |

— patent publication US11292788B2, “IL-17 and IFN-gamma inhibition for the treatment of autoimmune diseases and chronic inflammation” (Immunic AG, priority 2017, dated 2022)
